Test results as given in patent US20110184011A1, “Compounds” (SELCIA LIMITED, priority 2008, published 2011).

Key:
[1] = system: IL-1β stimulated IL-8 secretion in human umbilical vein endothelial cells (HUVECs); experiment: IL-1β stimulated IL-8 secretion assay in HUVEC cells (ELISA); format: cell-based; details: 0.5 ng/ml IL-1β; for inhibition at 1 µM: 1 μM compound, read-out: % Inhib at 1 μM; for inhibition at 1 µM / inhibition at 10 µM: IL-8 secretion; for inhibition at 10 µM: 10 μM compound, read-out: % Inhib at 10 μM; for IC50: 24 h, IL-8 ELISA
Protocol: Anti-inflammatory screening was established in human umbilical vein endothelial cells (HUVECs) to screen the test compounds for their ability to inhibit IL-1β stimulated IL-8 secretion from these cells. The level of secreted IL-8 in the HUVEC media was detected using a Quantikine™ Sandwich Enzyme-Linked Immunosorbent Assay (ELISA) from R&D Systems.
Cells and media were obtained from Cascade Biologics™ via Invitrogen. HUVECs were seeded in sterile 96-well tissue culture treated plates (0.1 ml per well, containing 2,400 cells; 8000 cells/cm^2). The seeded plates were incubated in a humidified incubator at 37 C/5% CO2. After 24 h, the media was replaced with fresh media (80 μl). The test compounds were serially diluted from 10 mM DMSO stocks with media to obtain dilutions 10× the final concentration. The compounds (10 μl) were added to the plates 30 min prior to the addition of 10 μl of 5 ng/ml stimulant IL-1β (final concentration 0.5 ng/ml). After incubating for 24 h, the plates were centrifuged at 200×g for 5 min (room temperature) and the media from each well transferred to a 96-well storage plate. Basal samples were assayed neat, but media from IL-1β stimulated cells was diluted in the calibrator diluent accompanying the IL-8 ELISA kit. The ELISA was performed according to the manufacturer's instructions.
A dose of 0.5 ng/ml IL-1β was chosen as a submaximal dose to observe the inhibition of IL-8 secretion with the test compounds.
Test compounds were initially screened at 10^−5M and 10^−6M for their ability to inhibit IL-1β stimulated IL-8 secretion (Table 1).

[2] = system: IL-1β stimulated MCP-1 secretion in HUVECs; experiment: IL-1β stimulated MCP-1 secretion in HUVECs (ELISA); format: cell-based, human; details: increasing concentration of compound
Protocol: (§1) The HUVEC IL1β secretion assay was performed using a 24-well plate format similar to that described for IL-8 secretion above (0.5 ml per well containing 16,000 cells; 8000 cells/cm^2). Media was collected from untreated cells (basal) and cells treated with either 0.5 ng/ml IL-1β only, 10^−5M compound (2) only or IL-1β stimulated plus compound (2). Media from 2 wells were pooled for each condition.
(§2) Using the results of the protein array, the effect of compound (2) on the secretion of five other cytokines stimulated by IL-1β was also measured in HUVECs. These included: GROα, MCP-1, GM-CSF, sICAM-1 and IL-6. The HUVECs were seeded in sterile 24-well tissue culture treated plates (as described above). The cells were treated with increasing doses of compound (2) prior to stimulating with IL-1β as described above. All cytokines were measured using the appropriate Quantikine® Sandwich ELISA from R&D Systems according to the manufacturer's instructions.

[3] = system: IL-1β stimulated GROα secretion in HUVECs; experiment: IL-1β stimulated GROα secretion in HUVECs (ELISA); format: cell-based, human; details: increasing concentration of compound
Protocol: as §1, §2

[4] = system: IL-1β stimulated GM-CSF secretion in HUVECs; experiment: IL-1β stimulated GM-CSF secretion in HUVECs (ELISA); format: cell-based, human; details: increasing doses of compound
Protocol: as §1, §2

[5] = system: IL-1β stimulated IL-6 secretion in HUVECs; experiment: IL-1β stimulated IL-6 secretion in HUVECs (ELISA); format: cell-based, human; details: increasing doses of compound
Protocol: as §1, §2

[6] = system: BALB/c mice, oxazolone-induced ear edema; experiment: Mouse allergic contact dermatitis model induced by oxazolone, topical application, ear swelling; format: in vivo; details: for effect on inflammation in mouse allergic contact dermatitis model: topical application, 0.3-3 mg/ear x2, result in words
Protocol: BALB/c derived male mice, weighing 23±2 g were housed in individually ventilated cages racks (IVC Racks, 36 Mini Isolator systems) throughout the experiment. Five mice per group were kept in a cage (in cm, 26.7 length×20.7 width×14.0 height) and maintained under controlled temperature (21-23° C.) and humidity (50%-70%) with 12-hour light/dark cycles. The animals were given free access to sterilized lab chow and reverse osmosis (RO) water ad libitum. All aspects of this work, i.e. housing, experimentation and disposal of animals, are performed in general accordance with the Guide for the Care and Use of Laboratory Animals (National Academy Press, Washington, D.C., 1996).
Compound (2) was prepared as 150, 50 and 15 mg/ml in vehicle, acetone:ethanol/1:1. The preshaven abdomens of five groups of 5 BALB/c test mice were sensitized by application of 100 μL of 1.5% oxazolone solution dissolved in acetone. Seven days after the initial sensitization, test substance (0.3, 1 and 3 mg in 20 μl/ear) and vehicle (acetone:ethanol/1:1, 20 μL/ear) were each administered topically to the anterior and posterior surfaces of the right ear 30 minutes before and 15 minutes after challenge by the second application of oxazolone (1% in acetone, 20 μL/ear). As a positive control, dexamethasone (0.1 mg/ear) was administered topically using the same treatment regime as the test compound. Twenty-four hours after the second application of oxazolone, the ear thickness of each mouse was measured with a Dyer model micrometer gauge. Ear edema was calculated by subtracting the thickness of the left ear (normal control) from the right ear (treated ear). Percent inhibition was calculated according to the formula: [(Ic−It)/Ic]×100%, where Ic and It refer to increase of ear thickness (mm) in control and treated mice, respectively. A 30 percent or more (30%) inhibition in ear swelling relative to the vehicle control is considered significant and indicates possible anti-inflammatory activity.

[7] = Solubility of the topical formulation in vehicle acetone:ethanol/1:1; format: physicochemical; details: 150, 50 and 15 mg/ml in acetone:ethanol/1:1
[8] = system: IL-1β stimulated IL-8 secretion in human umbilical vein endothelial cells (HUVECs); experiment: IL-1β stimulated IL-8 secretion assay in HUVEC cells (ELISA); format: cell-based; details: 24-well format, increasing doses

| Structure (SMILES) | inhibition at 1 µM [1] | inhibition at 10 µM [1] | IC50 [1] | also measured |
| --- | --- | --- | --- | --- |
| NC(=O)c1cc(-c2cccnc2)n2c1CCCC2 [Compound 1, 3-pyridin-3-yl-5,6,7,8-tetrahydro-indolizine-1-carboxamide] | 31.8% | 34.7% |  |  |
| NC(=O)c1c(Cl)c(-c2cccnc2)n2c1CCCC2 [Compound 2, 2-Chloro-3-pyridin-3-yl-5,6,7,8-tetrahydro-indolizine-1-carboxamide] | 49.4% | 59.5% | 350 nM | effect on IL-1β stimulated MCP-1 [2]: little effect; reduction of IL-1β stimulated GROα levels [3]: ~25%; effect on IL-1β stimulated GM-CSF levels [4]: dose dependently decreased; effect on IL-1β stimulated IL-6 levels [5]: increased IL-6 levels further; inhibition of ear swelling relative to vehicle control ([6]; 0.3 mg/ear x2 topical, 30 min before and 15 min after oxazolone challenge, measured at 24 h): 25%; inhibition of ear swelling relative to vehicle control ([6]; 1 mg/ear x2 topical, 30 min before and 15 min after oxazolone challenge, measured at 24 h): 29%; inhibition of ear swelling relative to vehicle control ([6]; 3 mg/ear x2 topical, 30 min before and 15 min after oxazolone challenge, measured at 24 h): 40%; effect on inflammation in mouse allergic contact dermatitis model ([6]; listed as compound 2): not as potent as dexamethasone; effect on inflammation in mouse allergic contact dermatitis model ([6]; listed as compound (2)): dose dependently inhibited inflammation; solubility of formulation [7]: not completely soluble; effect on IL-1β stimulated IL-8 secretion [8]: inhibited IL-8 and GM-CSF to a similar extent |
| Cc1ccncc1-c1cc(C#N)c2n1CCCC2 [Compound 3, 3-(4-Methyl-pyridin-3-yl)-5,6,7,8-tetrahydro-indolizine-1-carbonitrile] | 34.4% | 35% |  |  |
| Cc1ccncc1-c1cc(C(N)=O)c2n1CCCC2 [Compound 4, 3-(4-Methyl-pyridin-3-yl)-5,6,7,8-tetrahydro-indolizine-1-carboxylic acid amide] | 15.9% | 30.8% |  |  |
| NC(=O)c1c(Cl)c(-c2cccnc2)n2c1C(O)CCC2 (stereo not shown) [Compound 5, 2-Chloro-8-hydroxy-3-pyridin-3-yl-5,6,7,8-tetrahydro-indolizine-1-carboxylic acid amide] | 29% | 52.4% | 760 nM |  |
| N#Cc1c(Cl)c(-c2cccnc2)n2c1C(O)CCC2 (stereo not shown) [Compound 6, 2-Chloro-8-hydroxy-3-pyridin-3-yl-5,6,7,8-tetrahydro-indolizine-1-carbonitrile] | 52.2% | 21.8% |  |  |
| COC1CCCn2c(-c3cccnc3)c(Cl)c(C(N)=O)c21 (stereo not shown) [Compound 7, 2-Chloro-8-methoxy-3-pyridin-3-yl-5,6,7,8-tetrahydro-indolizine-1-carboxylic acid amide] | 1.4% | 32.1% |  |  |
| Cc1ccncc1-c1c(Cl)c(C#N)c2n1CCCC2 [Compound 8, 2-Chloro-3-(4-Methyl-pyridin-3-yl)-5,6,7,8-tetrahydro-indolizine-1-carbonitrile] | 5.5% | 39.6% |  |  |
| Cc1ccncc1-c1c(Cl)c(C(N)=O)c2n1CCCC2 [Compound 9, 2-Chloro-3-(4-methyl-pyridin-3-yl)-5,6,7,8-tetrahydro-indolizine-1-carboxylic acid amide] | 42.2% | 49.6% | 510 nM |  |
| N#Cc1c(Cl)c(-c2cccnc2)n2c1C(=O)C(Cl)(Cl)CC2 [Compound 10, 2,7,7-Trichloro-8-oxo-3-pyridin-3-yl-5,6,7,8-tetrahydro-indolizine-1-carbonitrile] | 18.8% | 35.7% |  |  |
| NC(=O)c1c(Cl)c(-c2cccnc2)n2c1C(=O)CCC2 [Compound 11, 2-Chloro-8-oxo-3-pyridin-3-yl-5,6,7,8-tetrahydro-indolizine-1-carboxylic acid amide] | 32.9% | 31.7% |  |  |
| NC(=O)c1c(Cl)c(-c2cccnc2)n2c1C=CCC2 [Compound 12, 2-Chloro-3-pyridin-3-yl-5,6-dihydro-indolizine-1-carboxylic acid amide] | 22.7% | 52.7% | 1600 nM |  |
| C[C@@H]1C[C@H]2[C@@H]3CCC4=CC(=O)C=C[C@]4(C)[C@@]3(F)[C@@H](O)C[C@]2(C)[C@@]1(O)C(=O)CO [dexamethasone, reference compound] |  |  |  | inhibition of ear swelling relative to vehicle control ([6]; 0.1 mg/ear topical, same regime, positive control): 72% |
